US20210300900A1, “OGA INHIBITOR COMPOUNDS” (Janssen Pharmaceutica NV, priority 2018, published 2021)

Molecular target: T1, recombinant human Meningioma Expressed Antigen 5 (MGEA5), also referred to as O-GcNAcase (OGA) (Homo sapiens, UniProt O60502)
T1 construct: Full length OGA enzyme was purchased at OnGene (cat #TP322411); purchased OnGene (so in the source)
T1 sequence (O60502 1-916): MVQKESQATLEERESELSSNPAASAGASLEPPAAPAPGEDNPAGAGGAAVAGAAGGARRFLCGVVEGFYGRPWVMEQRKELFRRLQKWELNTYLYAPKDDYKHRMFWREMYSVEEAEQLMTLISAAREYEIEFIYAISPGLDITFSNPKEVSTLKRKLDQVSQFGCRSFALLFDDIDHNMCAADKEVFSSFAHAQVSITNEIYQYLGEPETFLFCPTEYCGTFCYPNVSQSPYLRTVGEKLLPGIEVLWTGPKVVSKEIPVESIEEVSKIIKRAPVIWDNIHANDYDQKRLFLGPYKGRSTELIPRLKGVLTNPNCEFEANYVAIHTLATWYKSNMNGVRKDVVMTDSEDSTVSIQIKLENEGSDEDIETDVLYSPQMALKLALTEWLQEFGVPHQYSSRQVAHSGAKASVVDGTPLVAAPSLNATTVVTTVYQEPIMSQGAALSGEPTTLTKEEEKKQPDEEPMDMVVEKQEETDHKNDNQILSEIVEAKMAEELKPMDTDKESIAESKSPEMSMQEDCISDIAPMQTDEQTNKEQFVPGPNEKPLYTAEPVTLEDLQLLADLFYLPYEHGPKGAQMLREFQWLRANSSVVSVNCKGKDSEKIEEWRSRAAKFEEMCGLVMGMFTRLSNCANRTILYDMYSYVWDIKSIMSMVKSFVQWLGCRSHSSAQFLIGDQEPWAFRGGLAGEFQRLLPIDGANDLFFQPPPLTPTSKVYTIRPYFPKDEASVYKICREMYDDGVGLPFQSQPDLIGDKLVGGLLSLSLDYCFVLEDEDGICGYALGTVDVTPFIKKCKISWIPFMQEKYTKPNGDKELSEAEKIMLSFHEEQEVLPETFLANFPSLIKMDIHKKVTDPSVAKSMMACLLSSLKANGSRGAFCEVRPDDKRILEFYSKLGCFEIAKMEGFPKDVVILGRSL
Assay: OGA biochemical assay (inhibition of FM-GlcNAc hydrolysis, fluorescence)
Conditions: FM-GlcNAc substrate; for Emax: read-out: Enzymatic Emax (%); for IC50: read-out: Enzymatic hOGA, pIC50 (converted)
Description: The assay is based on the inhibition of the hydrolysis of fluorescein mono-β-D-N-Acetyl-Glucosamine (FM-GlcNAc) (Mariappa et al. 2015, Biochem J 470:255) by the recombinant human Meningioma Expressed Antigen 5 (MGEA5), also referred to as O-GcNAcase (OGA). The hydrolysis FM-GlcNAc (Marker Gene technologies, cat #M1485) results in the formation of B-D-N-glucosamineacetate and fluorescein. The fluorescence of the latter can be measured at excitation wavelength 485 nm and emission wavelength 538 nm. An increase in enzyme activity results in an increase in fluorescence signal. Full length OGA enzyme was purchased at OnGene (cat #TP322411). The enzyme was stored in 25 mM Tris.HCl, pH 7.3, 100 mM glycine, 10% glycerol at −20° C. Thiamet G and GlcNAcStatin were tested as reference compounds (Yuzwa et al. 2008 Nature Chemical Biology 4:483; Yuzwa et al. 2012 Nature Chemical Biology 8:393). The assay was performed in 200 mM Citrate/phosphate buffer supplemented with 0.005% Tween-20. 35.6 g Na2HPO4 2H2O (Sigma, #C0759) were dissolved in 1 L water to obtain a 200 mM solution. 19.2 g citric acid (Merck, #1.06580) was dissolved in 1 L water to obtain a 100 mM solution. pH of the sodiumphosphate solution was adjusted with the citric acid solution to 7.2. The buffer to stop the reaction consists of a 500 mM Carbonate buffer, pH 11.0. 734 mg FM-GlcNAc were dissolved in 5.48 mL DMSO to obtain a 250 mM solution and was stored at −20° C. OGA was used at a 2 nM concentration and FM-GlcNAc at a 100 uM final concentration. Dilutions were prepared in assay buffer.
50 nl of a compound dissolved in DMSO was dispensed on Black Proxiplate TM 384 Plus Assay plates (Perkin Elmer, #6008269) and 3 μl fl-OGA enzyme mix added subsequently. Plates were pre-incubated for 60 min at room temperature and then 2 μl FM-GlcNAc substrate mix added. […] Plates were briefly centrifuged for 1 min at 1000 rpm and incubate at room temperature for 6 h. To stop the reaction 5 μl STOP buffer were added and plates centrifuge again 1 min at 1000 rpm. Fluorescence was quantified in the Thermo Scientific Fluoroskan Ascent or the PerkinElmer EnVision with excitation wavelength 485 nm and emission wavelength 538 nm.
For analysis a best-fit curve is fitted by a minimum sum of squares method. From this an IC50 value and Hill coefficient was obtained. High control (no inhibitor) and low control (saturating concentrations of standard inhibitor) were used to define the minimum and maximum values.

Emax [%]	IC50 [nM]	Enzymatic Emax (%)	Enzymatic hOGA; pIC50	Enzymatic Emax (%) (listed as 69)	SMILES
84	2000				CCOc1nc(C(C)N2CCC[C@H](Cc3cc(C)nc(C)c3)C2)cn1C (mixture of isomers) [Product 24]
		100	6.61		CC(=O)Nc1cc([C@@H](C)N2CCC[C@H](Cc3cc(C)nc(C)c3)C2)n[nH]1 [Product 4]
	2820	82			CC(=O)Nc1cc(C(C)N2CC[C@@H](Cc3cc(C)nc(C)c3)C2)n[nH]1 (some centres unmarked) [Product 104]
104	89.1				COc1ccc(F)c(C(C)N2CCC[C@H](Cc3cc(C)nc(C(F)(F)F)c3)C2)n1 (some centres unmarked) [Product 71]
86	2820				COc1cccc(C(C)N2CC[C@H](Cc3cc(OC)nc(C(F)(F)F)c3)C2)n1 (mixture of isomers) [Product 123]
94	575				COc1cc(C[C@H]2CCN(C(C)c3cc(NC(C)=O)[nH]n3)C2)cc(C)n1 (mixture of isomers) [Product 128]
97	302				Cc1cc(C[C@H]2CCCN(C(C)c3nc(OC4CCC4)ccc3F)C2)cc(C)n1 (single isomer, unassigned) [Product 55]
		96	6.1		COc1ccc(C)c([C@H](C)N2CCC[C@H](Cc3cc(C)nc(C)c3)C2)n1 [Product 58]
16	> 10000				CCOc1cccc(C(C)N2CCCC(Cc3cc(C)nc(C)c3)C2)n1 (single isomer, unassigned) [Product 50]
73.3	3980				CCOc1cc(C(C)N2CC[C@H](Cc3cc(C)nc(C)c3)C2)n[nH]1 (mixture of isomers) [Product 139]
29.3	> 10000				COc1cccc(C(C)N2CC[C@H](Cc3cccnc3OC)C2)n1 (mixture of isomers) [Product 140]
63	6610				CCOc1nc(CN2CCC[C@H](Cc3cc(C)nc(C)c3)C2)c(Br)[nH]1 [Product 22]
		72	5.24		COc1cccc([C@@H](C)N2CCC[C@@H](CNc3cc(C)nc(C(F)(F)F)c3)C2)n1 [Product 94]
84	2290				Cc1cc(C[C@H]2CCCN(C(C)c3cccc(C(F)(F)F)n3)C2)cc(C)n1 (mixture of isomers) [Product 61]
95	562				COc1cc(C2CCCN(C(C)c3cc(NC(C)=O)[nH]n3)C2)cc(C)n1 (centres unmarked) [Product 75]
		65	5.27		CCOc1cc([C@@H](C)N2CCC[C@H](Cc3cc(C)nc(C)c3)C2)n[nH]1 [Product 15]
93	933				COc1ncc(C(C)N2CCC[C@H](Cc3cc(C)nc(C)c3)C2)cn1 (mixture of isomers) [Product 65]
24	> 10000				COc1ccc(C)c(CN2CCC[C@H](Cc3cc(C)nc(C)c3)C2)n1 [Product 160]
90	1320				CC(=O)N(C)c1cc(CN2CCC[C@H](Cc3cc(C)nc(C)c3)C2)n[nH]1 [Product 10]
11.3	> 10000				COc1cccc(C(C)N2CC[C@H](Cc3ncccc3F)C2)n1 (mixture of isomers) [Product 148]
	28.8				CC(=O)Nc1cc(C(C)N2CCCC(CNc3cc(C)nc(C)c3)C2)[nH]n1 (centres unmarked) [Product 87]

Emax [%]	IC50 [nM]	Enzymatic Emax (%)	Enzymatic hOGA; pIC50	Enzymatic Emax (%) (listed as 69)	SMILES
91	646				COc1cc(C(C)N2CC[C@@H](Cc3cc(C)nc(C)c3)C2)c(F)cn1 (mixture of isomers) [Product 99]
46	> 10000				COc1ccc(C[C@H]2CCN(C(C)c3cccc(OC)n3)C2)nc1 (mixture of isomers) [Product 150]
		36	<5		CC(=O)Nc1[nH]nc([C@@H](C)N2CCC[C@H](Cc3cc(C)nc(C)c3)C2)c1C [Product 12]
	> 10000				CC(=O)Nc1ncc(CN2CCC[C@H](Cc3cc(C)nc(C)c3)C2)n1C [Product 159]
99	562				COc1cc(OC2CCCN(C(C)c3nc(OC)ccc3F)C2)cc(C)n1 (centres unmarked) [Product 81]
		7	<5		CC(=O)Nc1[nH]nc([C@H](C)N2CCC[C@H](Cc3cc(C)nc(C)c3)C2)c1C [Product 13]
93	1050				CCNc1cc(CN2CCC[C@H](Cc3cc(C)nc(C)c3)C2)n[nH]1 [Product 2]
52	> 10000				CCOc1cc(CN2CCC[C@H](Cc3cc(C)nc(C)c3)C2)n(C)n1 [Product 161]
		10	<5		Cc1cc(C[C@H]2CCCN([C@H](C)c3nc(OC4CCC4)ccc3F)C2)cc(C)n1 [Product 54]
71	4570				CCOc1ncc(CN2CCC[C@H](Cc3cc(C)nc(C)c3)C2)s1 [Product 26]
11.8	> 10000				COc1cccc(C(C)N2CC[C@H](Cc3ncccc3OC)C2)n1 (mixture of isomers) [Product 151]
89	1050				CC(=O)Nc1cc(CN2CCC[C@H](Cc3cc(C)nc(C)c3)C2)cs1 [Product 27]
	75.9			103	COc1cc(C[C@H]2CCCN(C(C)c3nc(OC)ccc3F)C2)cc(C)n1 (some centres unmarked) [Product 69]
96	741				COc1cccc(C(C)N2CC[C@H](Cc3cc(C)nc(C(F)(F)F)c3)C2)n1 (mixture of isomers) [Product 121]
92	1120				COc1ccc(F)c(C(C)N2CC[C@@H](Cc3cc(C)nc(C)c3)C2)n1 (mixture of isomers) [Product 98]
63	6460				CC(=O)Nc1ccnc(CN2CCC[C@H](Cc3cc(C)nc(C)c3)C2)c1 [Product 31]
51	8710				COc1cc(C[C@H]2CCN(C(C)c3cccc(OC)n3)C2)ccn1 (mixture of isomers) [Product 124]
75	4370				COc1cc(C[C@H]2CCN(C(C)c3cccc(OC)n3)C2)cc(C)n1 (mixture of isomers) [Product 129]
44.3	> 10000				COc1cccc(C(C)N2CC[C@H](Cc3cccnc3C(F)(F)F)C2)n1 (mixture of isomers) [Product 145]
43.4	> 10000				COc1cccc(C(C)N2CC[C@H](Cc3cncc(F)c3)C2)n1 (mixture of isomers) [Product 144]
